In patent US12152020B2, “Pesticidally active azole-amide compounds” (SYNGENTA PARTICIPATIONS AG, priority 2018, dated 2024):

Key:
Assay type in all cases: in vivo
[1] = tested on: Plutella xylostella (Diamondback Moth); experiment: Example B14: Plutella xylostella, artificial diet in 96-well plates, eggs; conditions: 216 h, application rate of 500 ppm, 9 days after infestation
Protocol: Example B14: Plutella xylostella (Diamondback Moth)
96-well microtiter plates containing artificial diet were treated with aqueous test solutions, prepared from 10′000 ppm DMSO stock solutions, by a liquid handling robot. After drying, eggs (˜30 per well) were infested onto a netted lid which was suspended above the diet. The eggs hatch and L1 larvae move down to the diet. The samples were assessed for mortality 9 days after infestation.
The following compounds gave an effect of at least 80% average mortality at an application rate of 500 ppm: • P2, P3, P5, P6, P7, P9, P15, P16, P17, P18, P20, P22, P24, P25, P30, P31, P32, P33, P38.

[2] = tested on: Myzus persicae (Green Peach Aphid); experiment: Example B8: Myzus persicae intrinsic activity, sucrose solution under Parafilm, 24-well; conditions: 120 h, test rate of 12 ppm, 5 days after infestation
Excerpt: Example B8: Myzus persicae (Green Peach Aphid): Intrinsic Activity
Test compounds prepared from 10′000 ppm DMSO stock solutions were applied by pipette into 24-well microtiter plates and mixed with sucrose solution. The plates were closed with a stretched Parafilm. A plastic stencil with 24 holes was placed onto the plate and infested pea seedlings were placed directly on the Parafilm. The infested plate was closed with a gel blotting paper and another plastic stencil and then turned upside down. The samples were assessed for mortality 5 days after infestation.

[3] = tested on: Myzus persicae (Green Peach Aphid); experiment: Example B7: Myzus persicae systemic activity, pea seedling roots in test solution; conditions: 144 h, test rate of 24 ppm, 6 days after placing seedlings into test solutions
Protocol: Example B7: Myzus persicae (Green Peach Aphid): Systemic Activity
Roots of pea seedlings infested with an aphid population of mixed ages were placed directly into aqueous test solutions prepared from 10′000 DMSO stock solutions. The samples were assessed for mortality 6 days after placing seedlings into test solutions.

[4] = tested on: Spodoptera littoralis (Egyptian Cotton Leaf Worm); experiment: Example B9: Spodoptera littoralis, cotton leaf discs sprayed, L1 larvae; conditions: foliar, 72 h, application rate of 200 ppm, five L1 larvae, 3 days after infestation, in comparison to untreated samples, read-out: control in at least one of the categories (mortality, anti-feedant effect, or growth inhibition)
Protocol: Example B9: Spodoptera littoralis (Egyptian Cotton Leaf Worm)
Cotton leaf discs were placed onto agar in 24-well microtiter plates and sprayed with aqueous test solutions prepared from 10′000 ppm DMSO stock solutions. After drying the leaf discs were infested with five L1 larvae. The samples were assessed for mortality, anti-feeding effect, and growth inhibition in comparison to untreated samples 3 days after infestation. Control of Spodoptera littoralis by a test sample is given when at least one of the categories mortality, anti-feedant effect, and growth inhibition is higher than the untreated sample.

[5] = tested on: Myzus persicae (Green Peach Aphid); experiment: Example B13: Myzus persicae, sucrose solution under Parafilm, 96-well; conditions: 120 h, application rate of 50 ppm, 5 days after infestation
Excerpt: Example B13: Myzus persicae (Green Peach Aphid)
Test compounds prepared from 10′000 ppm DMSO stock solutions were applied by a liquid handling robot into 96-well microtiter plates and mixed with a sucrose solution. Parafilm was stretched over the 96-well microtiter plate and a plastic stencil with 96 holes was placed onto the plate. Aphids were sieved into the wells directly onto the Parafilm. The infested plates were closed with a gel blotting card and a second plastic stencil and then turned upside down. The samples were assessed for mortality 5 days after infestation.

[6] = tested on: Diabrotica balteata (Corn Root Worm); experiment: Example B1: Diabrotica balteata, maize sprouts sprayed, L2 larvae; conditions: 96 h, application rate of 200 ppm, 4 days after infestation, in comparison to untreated samples, read-out: effect in at least one of the two categories (mortality or growth inhibition)
Protocol: Example B1: Diabrotica balteata (Corn Root Worm)
Maize sprouts placed onto an agar layer in 24-well microtiter plates were treated with aqueous test solutions prepared from 10′000 ppm DMSO stock solutions by spraying. After drying, the plates were infested with L2 larvae (6 to 10 per well). The samples were assessed for mortality and growth inhibition in comparison to untreated samples 4 days after infestation.
The following compounds gave an effect of at least 80% in at least one of the two categories (mortality or growth inhibition) at an application rate of 200 ppm: • P2, P3, P4, P5, P6, P7, P8, P14, P15, P16, P17, P18, P19, P20, P21, P22, P23, P24, P25, P27, P28, P29, P30, P31, P32, P33, P34, P35

[7] = tested on: Euschistus heros (Neotropical Brown Stink Bug); experiment: Example B2: Euschistus heros, soybean leaves sprayed, N2 nymphs; conditions: 120 h, application rate of 200 ppm, 5 days after infestation, in comparison to untreated samples, read-out: effect in at least one of the two categories (mortality or growth inhibition)
Protocol: Example B2: Euschistus heros (Neotropical Brown Stink Bug)
Soybean leaves on agar in 24-well microtiter plates were sprayed with aqueous test solutions prepared from 10′000 ppm DMSO stock solutions. After drying the leaves were infested with N2 nymphs. The samples were assessed for mortality and growth inhibition in comparison to untreated samples 5 days after infestation.
The following compounds gave an effect of at least 80% in at least one of the two categories (mortality or growth inhibition) at an application rate of 200 ppm: • P1, P2, P3, P7, P11, P12, P16, P17, P18, P22, P25, P29, P32, P33, P37, P38

[8] = tested on: Plutella xylostella (Diamond Back Moth); experiment: Example B5: Plutella xylostella, artificial diet in 24-well plates, eggs; conditions: 192 h, application rate of 200 ppm, 8 days after infestation, in comparison to untreated samples, read-out: effect in at least one of the two categories (mortality or growth inhibition)
Protocol: Example B5: Plutella xylostella (Diamond Back Moth)
24-well microtiter plates with artificial diet were treated with aqueous test solutions prepared from 10′000 ppm DMSO stock solutions by pipetting. After drying, Plutella eggs were pipetted through a plastic stencil onto a gel blotting paper and the plate was closed with it. The samples were assessed for mortality and growth inhibition in comparison to untreated samples 8 days after infestation.
The following compounds gave an effect of at least 80% in at least one of the two categories (mortality or growth inhibition) at an application rate of 200 ppm: • P1, P2, P3, P4, P5, P7, P8, P9, P14, P15, P16, P17, P18, P21, P22, P23, P24, P25, P27, P28, P29, P30, P31, P32, P33, P34, P35, P36

[9] = tested on: Frankliniella occidentalis (Western Flower Thrips); experiment: Example B3: Frankliniella occidentalis feeding/contact activity, sunflower leaf discs; conditions: foliar, 168 h, application rate of 200 ppm, population of mixed ages, 7 days after infestation
Protocol: Example B3: Frankliniella occidentalis (Western Flower Thrips):Feeding/Contact Activity
Sunflower leaf discs were placed on agar in 24-well microtiter plates and sprayed with aqueous test solutions prepared from […] stock solutions. After drying the leaf discs were infested with a Frankliniella population of mixed ages. The samples were assessed for mortality 7 days after infestation.

[10] = tested on: Chilo suppressalis (Striped Rice Stemborer); experiment: Example B4: Chilo suppressalis, artificial diet, L2 larvae; conditions: 144 h, application rate of 200 ppm, 6 days after infestation, in comparison to untreated samples, read-out: control in at least one of the categories (mortality, anti-feedant effect, or growth inhibition)
Protocol: Example B4: Chilo suppressalis (Striped Rice Stemborer)
24-well microtiter plates with artificial diet were treated with aqueous test solutions prepared from 10′000 ppm DMSO stock solutions by pipetting. After drying, the plates were infested with L2 larvae (6-8 per well). The samples were assessed for mortality, anti-feeding effect, and growth inhibition in comparison to untreated samples 6 days after infestation. Control of Chilo suppressalis by a test sample is given when at least one of the categories mortality, anti-feedant effect, and growth inhibition is higher than the untreated sample.

[11] = tested on: Myzus persicae (Green Peach Aphid); experiment: Example B6: Myzus persicae feeding/contact activity, sunflower leaf discs; conditions: foliar, 144 h, application rate of 200 ppm, aphid population of mixed ages, 6 days after infestation
Protocol: Example B6: Myzus persicae (Green Peach Aphid): Feeding/Contact Activity
Sunflower leaf discs were placed onto agar in a 24-well microtiter plate and sprayed with aqueous test solutions prepared from 10′000 ppm DMSO stock solutions. After drying, the leaf discs were infested with an aphid population of mixed ages. The samples were assessed for mortality 6 days after infestation.

[12] = tested on: Thrips tabaci (Onion thrips); experiment: Example B12: Thrips tabaci feeding/contact activity, sunflower leaf discs; conditions: foliar, 144 h, application rate of 200 ppm, thrips population of mixed ages, 6 days after infestation
Protocol: Example B12: Thrips tabaci (Onion thrips): Feeding/Contact Activity
Sunflower leaf discs were placed on agar in 24-well microtiter plates and sprayed with aqueous test solutions prepared from 10′000 ppm DMSO stock solutions. After drying the leaf discs were infested with a thrips population of mixed ages. The samples were assessed for mortality 6 days after infestation.

COCc1nc(C(C)NC(=O)c2cc(C(F)(F)F)cc(C(F)(F)F)c2)n(-c2ncccn2)n1 (stereo not shown) [Compound P2, N-[1-[5-(methoxymethyl)-2-pyrimidin-2-yl-1,2,4-triazol-3-yl]ethyl]-3,5-bis(trifluoromethyl)benzamide]
≥ 80%: mortality at 500 ppm [1] | mortality at 12 ppm [2] | mortality at 24 ppm [3] | percent control (mortality, anti-feedant effect or growth inhibition) at 200 ppm [4] | mortality at 50 ppm [5] | percent effect (mortality or growth inhibition) at 200 ppm [6] | percent effect (mortality or growth inhibition) at 200 ppm [7] | percent effect (mortality or growth inhibition) at 200 ppm [8]

CC(NC(=O)c1cc(C(F)(F)F)cc(C(F)(F)F)c1)c1nc(Br)nn1-c1ncccn1 (stereo not shown) [Compound P4, N-[1-(5-bromo-2-pyrimidin-2-yl-1,2,4-triazol-3-yl)ethyl]-3,5-bis(trifluoromethyl) benzamide]
≥ 80%: mortality at 12 ppm [2] | mortality at 200 ppm [9] | percent control (mortality, anti-feedant effect or growth inhibition) at 200 ppm [4] | percent control (mortality, anti-feedant effect or growth inhibition) at 200 ppm [10] | percent effect (mortality or growth inhibition) at 200 ppm [6] | mortality at 200 ppm [11] | percent effect (mortality or growth inhibition) at 200 ppm [8]

CC(c1nc(I)nn1-c1ncccn1)N(CC1CC1)C(=O)c1cc(C(F)(F)F)cc(C(F)(F)F)c1 (stereo not shown) [Compound P5, N-(cyclopropylmethyl)-N-[1-(5-iodo-2-pyrimidin-2-yl-1,2,4-triazol-3-yl)ethyl]-3,5-bis(trifluoromethyl) benzamide]
≥ 80%: mortality at 500 ppm [1] | percent control (mortality, anti-feedant effect or growth inhibition) at 200 ppm [4] | mortality at 50 ppm [5] | percent effect (mortality or growth inhibition) at 200 ppm [6] | mortality at 200 ppm [12] | percent effect (mortality or growth inhibition) at 200 ppm [8]

CNC(=O)c1nc(C(C)N(C)C(=O)c2cc(C(F)(F)F)cc(C(F)(F)F)c2)n(-c2ncccn2)n1 (stereo not shown) [Compound P12, 5-[1-[[3.5-bis(trifluoromethyl)benzoyl]-methyl-amino]ethyl]-N-methyl-1-pyrimidin-2-yl-1,2,4-triazole-3-carboxamide]
≥ 80%: mortality at 12 ppm [2] | mortality at 200 ppm [9] | mortality at 24 ppm [3] | mortality at 50 ppm [5] | percent control (mortality, anti-feedant effect or growth inhibition) at 200 ppm [10] | percent effect (mortality or growth inhibition) at 200 ppm [7] | mortality at 200 ppm [11]

CC(c1nc(N(C)C)nn1-c1ncccn1)N(C)C(=O)c1cc(C(F)(F)F)cc(C(F)(F)F)c1 (stereo not shown) [Compound P16, N-[1-[5-(dimethylamino)-2-pyrimidin-2-yl-1,2,4-triazol-3-yl]ethyl]-N-methyl-3,5-bis(trifluoromethyl) benzamide]
≥ 80%: mortality at 500 ppm [1] | mortality at 12 ppm [2] | mortality at 200 ppm [9] | mortality at 24 ppm [3] | percent control (mortality, anti-feedant effect or growth inhibition) at 200 ppm [4] | mortality at 50 ppm [5] | percent effect (mortality or growth inhibition) at 200 ppm [6] | percent effect (mortality or growth inhibition) at 200 ppm [7] | mortality at 200 ppm [11] | percent effect (mortality or growth inhibition) at 200 ppm [8]

CC(NC(=O)c1cc(C(F)(F)F)cc(C(F)(F)F)c1)c1nc(S(C)(=O)=O)nn1-c1ncccn1 (stereo not shown) [Compound P21, N-[1-(5-methylsulfonyl-2-pyrimidin-2-yl-1,2,4-triazol-3-yl)ethyl]-3,5-bis(trifluoromethyl) benzamide]
≥ 80%: mortality at 12 ppm [2] | mortality at 24 ppm [3] | percent control (mortality, anti-feedant effect or growth inhibition) at 200 ppm [4] | mortality at 50 ppm [5] | percent control (mortality, anti-feedant effect or growth inhibition) at 200 ppm [10] | percent effect (mortality or growth inhibition) at 200 ppm [6] | mortality at 200 ppm [11] | percent effect (mortality or growth inhibition) at 200 ppm [8]
